Test results: patent publication US9605241B2, “Induction and stabilization of enzymatic activity in microorganisms” (Georgia State University Research Foundation, Inc., priority 2006, dated 2017)

Legend:
[1] = test system: asparaginase I; experiment: Asparaginase I production on supplemented medium; assay type: cell-based; details: asparagine and glutamine added 3.8 mM
Procedure: The induction of asparaginase I production in various nitrile hydratase producing microorganisms was evaluated. All strains were grown on YEMEA medium containing 7.5 g/L of urea and 10 ppm cobalt (provided as cobalt chloride) supplemented with asparagine (ASN), glutamine (GLN), or both asparagine and glutamine. The asparagine and glutamine were added 3.8 mM. As a comparative, enzyme production was also evaluated with supplementation was with acrylonitrile (AN), acrylamide (AMD) or acrylonitrile and acrylamide. Growth temperature was in the range of 26° C. to 30° C.

[2] = test system: asparaginase I; experiment: Effect of inducer and media composition on asparaginase I; assay type: cell-based; details: Rhodococcus sp. DAP 96253; inducer 1000 ppm
Procedure: Testing was performed to evaluate the effect on asparaginase I activity based upon the inducer used. In particular, testing was performed using asparagine, glutamine, succinonitrile, and isovaleronitrile as inducers (all added at 1000 ppm each).

[3] = test system: nitrile hydratase; experiment: Nitrile hydratase induction by inducers (Example 1); assay type: cell-based, Rhodococcus sp., strain DAP 96253; details: Table 1 comparison
Procedure: The induction of nitrile hydratase activity and amidase activity in Rhodococcus sp., strain DAP 96253, was evaluated using multiple types of inducers (1000 ppm). Three different samples were cultured in YEMEA medium containing 10 ppm cobalt and 7.5 g/L urea and supplemented with acrylonitrile, asparagine, or glutamine. The specific nitrile hydratase activity and the specific amidase activity in each sample was evaluated, and the results are provided below in Table 1, with activities provided in units/mg cdw (cell dry weight). One unit of nitrile hydratase activity relates to the ability to convert 1 Arnol of acrylonitrile to its corresponding amide per minute, per milligram of cells (dry weight) at a of pH 7.0 and a temperature of 30° C. One unit of amidase activity relates to the ability to convert […] of acrylamide to its corresponding acid per minute, per milligram of cells (dry weight) pH of 7.0 and a temperature of 30° C.

Row | Compound | ability to induce asparaginase I activity (in words) [2] | ability to induce nitrile hydratase activity compared with acrylonitrile [3] | other results
1 | C=CC#N [Acrylonitrile, acrylonitrile] | – | – | Asparaginase I Level Based on Growth Medium Supplementation ([1]; Pseudomonas chloroaphis ATCC 13985, 26 °C): 2 Units/mg cdw; Asparaginase I Level Based on Growth Medium Supplementation ([1]; Rhodococcus rhodochrous DAP 96622 ATCC 55898, 26 °C): 8.2 Units/mg cdw; Asparaginase I Level Based on Growth Medium Supplementation ([1]; Rhodococcus sp. DAP 96253 ATCC 55899, 30 °C): 7.8 Units/mg cdw
2 | NC(=O)CC[C@H](N)C(=O)O [Glutamine, glutamine] | showed an ability to induce asparaginase I activity | exceeds the ability of acrylonitrile to induce such activity | Asparaginase I Level Based on Growth Medium Supplementation ([1]; Pseudomonas chloroaphis ATCC 43051, 30 °C): No
3 | N#CCCC#N [Succinonitrile, succinonitrile] | showed an ability to induce asparaginase I activity | – | –
4 | NC(=O)C[C@H](N)C(=O)O [Asparagine, asparagine] | – | exceeds the ability of acrylonitrile to induce such activity | –
